Patent publication US3974187A, “Synthetic analogs having the activity of naturally occurring forms of coenzyme Q” (priority 1975, dated 1976)

Assays:
[1] = system: succinoxidase system of beef heart mitochondria; assay: CoQ activity: restoring succinoxidase activity of pentane-extracted beef heart mitochondria (manometric); format: biochemical; parameters: key to CoQ10 Act. Index: activity index relative to CoQ10 standard; details: for Activation at 400 nMoles %: 400 nmoles of analog, relative to the response to 400 nmoles CoQ10; for Maximum Activation: 400 nm of analog per flask, percent of the response to CoQ4; for CoQ10 Act. Index: calculated from relative effectiveness, activity in terms of that of CoQ10; for Estimated nMoles Required for 50% Activation: level required to reinstate approximately 50% of maximum succinoxidase activity, 0.65-0.85 mg PEBHM; for Relative Effectiveness: molar amounts of analog and CoQ4 required to restore the same level of succinoxidase to PEBHM, relative to CoQ4; for ability to elicit maximum activation of succinoxidase / effectiveness / utilization in the succinoxidase mitochondrial system: interpretation of Table II
Experimental: The CoQ activity of each analog was assessed by examining the ability of the analog to stimulate the succinoxidase activity of beef-heart mitochondria (BHM) from which the naturally occurring CoQ had been removed by pentane extraction. (Table I) Beef heart mitochondria were prepared by the method of Smith (Methods Enzymol., 10, 81 (1967). The pentane extraction was conducted as described by Szarkowska (Arch. Biochem. Biophys., 113, 519 (1966); PEBHM was frozen and used within 10 days of preparation, since pentane extraction decreases the stability of BHM. Succinoxidase activity was determined manometercally, using a Gilson differential respirometer (Iwamoto, Y., Hansen, I. L., Porter, T. H., and Folkers, K., Biochem. Biophys. Res. Comm., 58, 633 (1974), and is reported as […] of oxygen per minute per milligram of protein. A commercial soybean phospholipid preparation (Asolectin), dispersed by sonication (Fleischer, S. and Fleischer, B., Methods Enzymol., 10, 421 (1967), was used to provide phospholipid micelles, and test substances were added as solutions in ethanol. Within Table I are listed the CoQ activities of the analogs and selected reference compounds. The CoQ10 Activity Index is a measure of the effectiveness of the analogs, relative to the standard, in stimulating a submaximal response of succinoxidase activity. Specific activity of the succinoxidase system in response to stimulation by exogenous CoQ10 is given in footnote a of the Table. The quantity of analog to be added was chosen to provide a level of succinoxidase activity corresponding to the nearly linear portion of the activity: dose curve, in which succinoxidase activity stimulated is approximately proportional to the level of analog used. The second column lists the nanomolar quantity of analog required to provide a stimulation of about half of the maximum response. The relative response of the succinoxidase system to 400 nmol of each analog is listed in the third column of the Table. This level of analog is sufficient to insure significant excess over the stoichiometric amount, and maximum response to CoQ4 is obtained at one-tenth to one-twentieth of this dose level. The response to 400 nmol of CoQ10 is lower than is the response to other components listed. The very long side-chain of CoQ10, the natural coenzyme, may hinder the transport of exogenous CoQ10 to the active site.

[2] = system: oxidative phosphorylation at site I (ETPH particles); assay: Assay of CoQ and analogs for oxidative phosphorylation at site I with ETPH particles; format: biochemical; parameters: Δ NADH / Δ G6P: unit not given here; details: for P/NADH Ratio / Δ G6P / Δ NADH / μmoles NADH /min/mg / μmoles NADH min/mg +Rotenone / % Inhibition by Rotenone: CoQ or analog 0.12 nM (footnote 0.12 mM); for μmoles NADH /min/mg: 200 μg ETPH particles, no rotenone; for μmoles NADH min/mg +Rotenone / % Inhibition by Rotenone: rotenone 2 μM
Experimental: Assays were performed with 200 μg of ETPH particles as described by
Schatz and Racker (J. Biol. Chem., 241, 1429 (1966)). The concentration o
the CoQ compounds was 0.12 mM. Rotenone was added at 2 μM

complex III = complex III (Bos taurus, UniProt P00157+P13272); assay: Reduction of cytochrome c by reduced CoQ and analogs catalyzed by complex III; format: biochemical; details: for nMoles Cytochrome c Reduced/min / Non-enzymatic Rate of Cytochrome c Reduction: 10 μM reduced CoQ or analog; for nMoles Cytochrome c Reduced/min: 2 μg complex III, 8 μM cytochrome c; for Non-enzymatic Rate of Cytochrome c Reduction: blank without complex III; for % Inhibition by Antimycin A: antimycin A 1 μg/ml
Experimental: Reduction of cytochrome c was measured at 550-540 nm. The reaction mixtur
contained in 1.0 ml: […] KP1, pH 7.5; 0.05 mM EDTA; 8 μM
cytochrome c1; 10 μM reduced CoQ or analog and 2 μg complex
III. When indicated, antimycin A was added to the assay medium at 1
μg/ml. An extinction coefficient of 19 mM^-^1 was used for […]

Chemical stability = format: physicochemical; details: compared with CoQ1 and CoQ2
[3] = literature / general knowledge; cited from earlier work

Compound | Activation at 400 nMoles % [1] [%] | Maximum Activation [1] [%] | CoQ10 Act. Index [1] | Estimated nMoles Required for 50% Activation [1] [nmol] | Relative Effectiveness [1] [%] | other results
CCCCCC=CCC=CCC=CCC=CCCCC1=C(C)C(=O)C(OC)=C(OC)C1=O [4', 7', 10', 13'-Nonadecatetraenyl, 2,3-Dimethoxy-5-methyl-6-(4',7',10',13'-nonadecatetraenyl)-1,4-benzoquinone] | 118 | 92 | 7.7 | 5.4 | 37 | 
CCC=CCC=CCC=CCCCCCCCC1=C(C)C(=O)C(OC)=C(OC)C1=O [8', 11', 14'-Heptadecatrienyl, 2,3 -Dimethoxy-5-methyl-6-(8',11',14'-heptadecatrienyl)-1,4-benzoquinone] | 123 | 96 | 12.5 | 3.3 | 60 | 
CCC=CCC=CCC=CCCCCCCCCCC1=C(C)C(=O)C(OC)=C(OC)C1=O [10', 13', 16'-Nonadecatrienyl, 2,3-Dimethoxy-5-methyl-6-(10',13' ,16'-nonadecatrienyl)-1,4-benzoquinone] | 128 | 100 | 10.2 | 4.1 | 49 | 
COC1=C(OC)C(=O)C(C/C=C(\C)CC/C=C(\C)CC/C=C(\C)CCC=C(C)C)=C(C)C1=O [CoQ4, reference compound] | 128 | 100 | 20.8 | 2.0 | 100 | amount giving full restoration of activity of succinoxidase in PEBHM [1]: more than 20 nmoles; maximum activity of succinoxidase in PEBHM ([1]; full restoration, more than 20 nmoles of CoQ4): 0.700 μatm O2 /mg protein min; ability to elicit maximum activation of succinoxidase [1]: can elicit maximum activation; effectiveness / utilization in the succinoxidase mitochondrial system [1]: effectively utilized
COC1=C(OC)C(=O)C(C/C=C(\C)CC/C=C(\C)CC/C=C(\C)CC/C=C(\C)CC/C=C(\C)CC/C=C(\C)CCC=C(C)C)=C(C)C1=O [CoQ7, reference compound] | 115 | 90 | 1.7 | 24.4 | 8.2 | 
COC1=C(OC)C(=O)C(CC=C(C)C)=C(C)C1=O [Q1, reference compound] |  |  |  |  |  | P/NADH Ratio [2]: 0.522; Δ G6P [2]: 0.046; Δ NADH [2]: 0.088; μmoles NADH /min/mg [2]: 0.45 μmoles NADH /min/mg; μmoles NADH min/mg +Rotenone [2]: 0.03 μmoles NADH min/mg; % Inhibition by Rotenone [2]: 93%; nMoles Cytochrome c Reduced/min (complex III): 12.4 nmol/min; Non-enzymatic Rate of Cytochrome c Reduction (complex III): 0.6 nmol/min; % Inhibition by Antimycin A (complex III): 100%; chemical stability of isoprenoid quinones [3]: relative chemical instability
COC1=C(OC)C(=O)C(C/C=C(\C)CCC=C(C)C)=C(C)C1=O [Q2, reference compound] |  |  |  |  |  | P/NADH Ratio [2]: 0.57; Δ G6P [2]: 0.045; Δ NADH [2]: 0.079; μmoles NADH /min/mg [2]: 0.25 μmoles NADH /min/mg; μmoles NADH min/mg +Rotenone [2]: 0.02 μmoles NADH min/mg; % Inhibition by Rotenone [2]: 92%; nMoles Cytochrome c Reduced/min (complex III): 27.4 nmol/min; Non-enzymatic Rate of Cytochrome c Reduction (complex III): 0.2 nmol/min; % Inhibition by Antimycin A (complex III): 98%; chemical stability of isoprenoid quinones [3]: relative chemical instability
CC(C)=CCC/C(C)=C/CC/C(C)=C/CC1=CC(=O)C(C)=C(C)C1=O [plastoquinone-3] |  |  |  |  |  | chemical stability of isoprenoid quinones [3]: extremely unstable

Now from value to molecule, other results behind:

Activation at 400 nMoles % [1] [%] | Maximum Activation [1] [%] | CoQ10 Act. Index [1] | Estimated nMoles Required for 50% Activation [1] [nmol] | Relative Effectiveness [1] [%] | Compound | other results
122 | 95 | 9.0 | 4.7 | 43 | CCCCCC=CCC=CCCCCCCCC1=C(C)C(=O)C(OC)=C(OC)C1=O [8', 11'-Heptadecadienyl, 2,3-Dimethoxy-5-methyl-6-(8',11'-heptadecadienyl)-1,4-benzoquinone] | 
121 | 94 | 5.8 | 7.1 | 28 | CCCCCCCCC=CCCCCCCCC1=C(C)C(=O)C(OC)=C(OC)C1=O [8'-Heptadecenyl, 2,3-Dimethoxy-5-methyl-6-(8'-heptadecenyl)-1,4-benzoquinone] | 
119 | 93 | 11.1 | 3.4 | 58 | CCCCCCC=CCCCCCCCC1=C(C)C(=O)C(OC)=C(OC)C1=O [8'-Pentadecenyl] | 
123 | 96 | 7.3 | 5.7 | 35 | CCCCCC=CCC=CCCCCCCCCCC1=C(C)C(=O)C(OC)=C(OC)C1=O [10', 13'-Nonadecadienyl] | 
123 | 96 | 5.8 | 7.1 | 28 | CCCCCCCCC=CCCCCCCCCCC1=C(C)C(=O)C(OC)=C(OC)C1=O [10'-Nonadecenyl, 2,3-Dimethoxy-5-methyl-6-(10'-nonadecenyl)-1,4-benzoquinone] | 
123 | 96 | 11.7 | 3.6 | 56 | CCCCCCCCCCC1=C(C)C(=O)C(OC)=C(OC)C1=O [Decyl, 2,3-Dimethoxy-5-methyl-6-decyl-1,4-benzoquinone] | effectiveness / utilization in the succinoxidase mitochondrial system [1]: effective; P/NADH Ratio [2]: 0.46; Δ G6P [2]: 0.039; Δ NADH [2]: 0.085; μmoles NADH /min/mg [2]: 0.52 μmoles NADH /min/mg; μmoles NADH min/mg +Rotenone [2]: 0 μmoles NADH min/mg; biochemical effectiveness in the site I assay system ([2]; compared with CoQ1): as biochemically effective as CoQ1; % Inhibition by Rotenone [2]: 100%; nMoles Cytochrome c Reduced/min (complex III): 29.0 nmol/min; Non-enzymatic Rate of Cytochrome c Reduction (complex III): 0.2 nmol/min; response of complex III system to the reduced analog as substrate (complex III; after reduction and extraction): excellent substrates; % Inhibition by Antimycin A (complex III): 98%; chemical stability (Chemical stability; listed as 6-n-decyl): superior to CoQ1 and CoQ2 in chemical stability; chemical stability (Chemical stability; listed as DB): apparent greater stability
79 | 62 | 0.9 | 44.4 | 4.5 | CCCCCCCCCCCCCCCCCCCCC1=C(C)C(=O)C(OC)=C(OC)C1=O [Eicosyl, 2,3-Dimethoxy-5-methyl-6-n-eicosyl-1,4-benzoquinone] | ability to elicit maximum activation of succinoxidase [1]: cannot stimulate maximum activation
